Test system: EpiAirway™ Cell Membrane (mucosal epithelial cell layer)
Assay: Transepithelial electrical resistance (TER) assay in EpiAirway Cell Membrane
Type: cell-based
Conditions: for Average TER Value: permeabilizing peptide 1.0 mM on EpiAirway Cell Membrane, each group of lines has its own CONTROL; for TER % of Control: permeabilizing peptide 1.0 mM, control normalized to 100, decrease = increased permeability
Experimental: The EpiAirway™ system was developed by MatTek Corp (Ashland, Mass.) as a model of the pseudostratified epithelium lining the respiratory tract. The epithelial cells are grown on porous membrane-bottomed cell culture inserts at an air-liquid interface, which results in differentiation of the cells to a highly polarized morphology. The apical surface is ciliated with a microvillous ultrastructure and the epithelium produces mucus (the presence of mucin has been confirmed by immunoblotting). The inserts have a diameter of 0.875 cm, providing a surface area of 0.6 cm^2. The cells are plated onto the inserts at the factory approximately three weeks before shipping. One “kit” consists of 24 units.
A. On arrival, the units are placed onto sterile supports in 6-well microplates. Each well receives 5 mL of proprietary culture medium. This DMEM-based medium is serum free but is supplemented with epidermal growth factor and other factors. […] The 5 mL volume is just sufficient to provide contact to the bottoms of the units on their stands, but the apical surface of the epithelium is allowed to remain in direct contact with air. Sterile tweezers are used in this step and in all subsequent steps involving transfer of units to liquid-containing wells to ensure that no air is trapped between the bottoms of the units and the medium.
B. The units in their plates are maintained at 37° C. in an incubator in an atmosphere of 5% CO2 in air for 24 hours. At the end of this time the medium is replaced with fresh medium and the units are returned to the incubator for another 24 hours.
A. A “kit” of 24 EpiAirway™ units can routinely be employed for evaluating five different formulations, each of which is applied to quadruplicate wells. Each well is employed for determination of permeation kinetics (4 time points), transepithelial electrical resistance (TER), mitochondrial reductase activity as measured by MTT reduction, and cytolysis as measured by release of LDH. An additional set of wells is employed as controls, which are sham treated during determination of permeation kinetics, but are otherwise handled identically to the test sample-containing units for determinations of transepithelial resistance and viability. The determinations on the controls are routinely also made on quadruplicate units, but occasionally we have employed triplicate units for the controls and have dedicated the remaining […] units in the kit to measurements of transepithelial resistance and viability on untreated units or we have frozen and thawed the units for determinations of total LDH levels to serve as a reference for 100% cytolysis.
A. Respiratory airway epithelial cells form tight junctions in vivo as well as in vitro, and thereby restrict the flow of solutes across the tissue. These junctions confer a transepithelial resistance of several hundred ohms×cm^2 in excised airway tissues. In the MatTek EpiAirway™ units, the transepithelial electrical resistance (TER) is reported by the manufacturer to be routinely around 1000 ohms×cm^2. […] The porous membrane-bottomed units without cells, conversely, provide only minimal transmembrane resistance (approximately 5-20 ohms×cm^2).
B. Accurate determinations of TER require that the electrodes of the ohmmeter be positioned over a significant surface area above and below the membrane, and that the distance of the electrodes from the membrane be reproducibly controlled. The method for TER determination recommended by MatTek and employed for all experiments herein employs an “EVOM”™ epithelial voltohmmeter and an “ENDOHM”™ tissue resistance measurement chamber from World Precision Instruments, Inc., Sarasota, Fla.
C. The chamber is initially filled with Dulbecco's phosphate buffered saline (PBS) for at least 20 minutes prior to TER determinations in order to equilibrate the electrodes.
D. Determinations of TER are made with 1.5 mL of PBS in the chamber and 350 μL of PBS in the membrane-bottomed unit being measured. […]

Sequence | Average TER Value [ohms-cm^2] | TER % of Control [%]
YGYGGYTDP [NP-15, Occludin: 1st extracellular domain] | 383 ± 79 | 103.5
FIGSNIVTSQ [NP-35, Claudin-4: 1st extracellular domain] | 298 ± 56 | 65.2
KVYDSVLALS [NP-43, Claudin-5: 1st extracellular domain] | 446 ± 85 | 128.9
FIGSNIITSQ [NP-37, Claudin-3: 1st extracellular domain] | 304 ± 41 | 66.5
ATHSTGITQC [NP-44, Claudin-2: 1st extracellular domain] | 464 ± 61 | 134.1
LVCYNNKIT [NP-13, JAM-1 extracellular domain] | 288 ± 51 | 93.5
NIWEGLWMNC [NP-34, Claudin-3: 1st extracellular domain] | 297 ± 40 | 65.0
GYGYGYGYG [NP-4, Occludin: 1st extracellular domain] | 500 ± 42 | 94.9
GGSVGYPYG [NP-39, Occludin: 1st extracellular domain] | 442 ± 185 | 127.7
GEVKVKLIV [NP-9, JAM-1 extracellular domain] | 342 ± 185 | 92.4
NRIVQEFYDP [NP-11, Claudin-1: 2nd extracellular domain] | 292 ± 20 | 94.8
SVTVHSSEP [NP-1, JAM-1 extracellular domain] | 606 ± 130 | 115.0
KVFDSLLNLS [NP-2, Claudin-1: 1st extracellular domain] | 709 ± 28 | 134.5
TTWLGLWMSC [NP-45, Claudin-1: 1st extracellular domain] | 456 ± 162 | 131.8
FLDHNIVTAQ [NP-20, Claudin-5: 1st extracellular domain] | 341 ± 31 | 92.2
AMYEGLWMSC [NP-38, Claudin-1 1st extracellular domain] | 291 ± 89 | 63.7
VSQSTGQIQC [NP-18, Claudin-1: 1st extracellular domain] | 439 ± 145 | 118.6
DRGYGTSLL [NP-3, Occludin: 1st extracellular domain] | 766 ± 94 | 145.4
KFDQGDTTR [NP-6, JAM-1 extracellular domain] | 793 ± 44 | 150.5
YVGASIVTAV [NP-19, Claudin-2: 1st extracellular domain] | 374 ± 57 | 101.1
TIWEGLWMNC [NP-40, Claudin-4: 1st extracellular domain] | 457 ± 146 | 100.0
VVQSTGQMQC [NP-36, Claudin-3: 1st extracellular domain] | 306 ± 58 | 67.0
KVYDSLLALP [NP-7, Claudin-3: 1st extracellular domain] | 811 ± 87 | 153.9
VSEEGGNSY [NP-12, JAM-1 extracellular domain] | 279 ± 27 | 90.6
VVQSTGHMQC [NP-16, Claudin-5: 1st extracellular domain] | 386 ± 44 | 104.3
IVVREFYDPS [NP-14, Claudin-5: 2nd extracellular domain] | 286 ± 56 | 92.9
GSGFGSYGS [NP-5, Occludin: 1st extracellular domain] | 520 ± 134 | 98.7

— patent US20040077540A1, “Compositions and methods for modulating physiology of epithelial junctional adhesion molecules for enhanced mucosal delivery of therapeutic compounds” (Nastech Pharmaceutical Company Inc., priority 2002, published 2004)
